Here are results for eight compounds from patent US20260183405A1, “SMALL MOLECULE-DRUG-CONJUGATES CLEAVABLE IN A TUMOR MICROENVIRONMENT” (priority 2022, published 2026).

What all share (experiment): Cytotoxicity in vitro in the presence and absence of elastase (MTT assay)
Holding throughout (assay type): cell-based

Assay [1] relates to SUM149PT. Particulars: SUM149PT cells, 72 h incubation. Here is the method:
(§1) Cultivation of cells was performed according to standard procedures with the media recommended by the provider. The cells, in a total volume of 100 μL, were seeded in a 96-well plate with a white bottom (#3610). After a 24 h incubation period at 37° C. and 5% CO2, the medium was exchanged by adding 90 μL fresh medium. The treatment started by adding the test compound in 10 μL of culture medium to the cells in triplicates. Concentrations ranging from 10^−5 M to 10^−13 M were chosen. Two identically treated sets of samples were prepared. One set was treated with the test compound alone, whereas to the second set the compound and 10 nM elastase (NE) was added followed by a 72 h incubation period at 37° C. and 5% CO2. The proliferation was detected using the MTT assay (ATCC). At the end of the incubation period the MTT reagent was added to all samples for 4h. Lysis of the cells followed by addition of the detergent was done overnight. The formed dye was detected at 570 nm. The proliferation of untreated but otherwise identically handled cells was defined as the 100% value. The dose response curves allowed the determination of the respective IC50 values. […]

Assay [2] deals with HT29. Particulars: HT29 cells, 72 h incubation. Here is the method: as §1
Assay [3] deals with 786-O. Particulars: 786-O cells, 72 h incubation. Here is the method:
as §1

In assay [4] the test system is NCI-H292. Particulars: NCI-H292 cells, 72 h incubation. Here is the method: as §1
The mark [5] stands for this setting: compound alone, read-out: IC50 without neutrophil elastase.
The mark [6] stands for this setting: with 10 nM elastase (NE), read-out: IC50 with neutrophil elastase.

pIC50: −log10 of the molar value. Like-named read-outs stand apart in the source and are kept apart here. Starred links: 1 amine or outer side, 2 acyl side, 3 side chain; linkers in the order of their positions; H or OH if unused. Non-standard residues stand in square brackets, D forms with d. Residues, ends and D or L forms follow the SMILES beside them. Groups on a side chain read outwards from the residue. *: point of attachment. Camptothecin(7-Et) = CCc1c2c(nc3ccccc13)-c1cc3c(c(=O)n1C2)COC(=O)[C@@]3(CC)O*; EuK = O=C(O)CC[C@H](NC(=O)N[C@@H](CCCCN*)C(=O)O)C(=O)O; Deacetylacetazolamide = NS(=O)(=O)c1nnc(N*)s1; Suc = O=C(CCC(=O)[*:2])[*:1]; PEG3 = NCCOCCOCCOCCC(=O)O; CO = O=C([*:1])[*:2]

`CCc1c2c(nc3ccccc13)-c1cc3c(c(=O)n1C2)COC(=O)[C@@]3(CC)OC(=O)[C@@H](NC(=O)[C@@H]1CCCN1C(=O)[C@H](CC(=O)O)NC(=O)CCOCCOCCOCCNC(=O)CCC(=O)Nc1nnc(S(N)(=O)=O)s1)C(C)C` [Compound 4, sodium (4S)-4,11-diethyl-3,14-dioxo-3,4,12,14-tetrahydro-1H-pyrano[3′,4′:6,7]indolizino[1,2-b]quinolin-4-yl 1-{(2S)-2-(carboxylatomethyl)-4,17,20-trioxo-20-[(5-sulfamoyl-1,3,4-thiadiazol-2-yl)amino]-7,10,13-trioxa-3,16-diazaicosanan-1-oyl}-L-prolyl-L-valinate]: the pIC50 in assay [1] (setting [5]) is 6.00 to 7.00; in assay [1] (setting [6]), 8.00 to 9.00; in assay [2] (setting [5]) it was less than 6.00; in assay [2] (setting [6]), 7.00 to 8.00; in assay [3] (setting [5]), 6.00 to 7.00; in assay [3] (setting [6]), 8.00 to 9.00. Further, the pIC50 is 6.00 to 7.00 in assay [4] (setting [5]) and 8.00 to 9.00 in assay [4] (setting [6]).

Consider `CCCNC(=O)Nc1cccc(S(=O)(=O)Nc2cccc([C@@H](CC(=O)O)NC(=O)Nc3ccc(NC(=O)NCCOCCOCCOCCC(=O)N[C@@H](CC(=O)O)C(=O)N4CCC[C@H]4C(=O)N[C@H](C(=O)OCCCNC(=O)[C@H](Cc4ccccc4)NC(=O)[C@H](C)[C@@H](OC)[C@@H]4CCCN4C(=O)C[C@@H](OC)[C@H]([C@@H](C)CC)N(C)C(=O)[C@@H](NC(=O)[C@H](C(C)C)N(C)C)C(C)C)C(C)C)cc3)c2)c1` [Compound 30], for which the pIC50 in assay [1] (setting [5]) is 7.00 to 8.00; in assay [1] (setting [6]), 8.00 to 9.00; in assay [2] (setting [5]), 6.00 to 7.00; in assay [2] (setting [6]) it was 8.00 to 9.00; in assay [3] (setting [5]) it was 6.00 to 7.00; in assay [3] (setting [6]), 7.00 to 8.00. Besides, the pIC50 in assay [4] (setting [5]) is 7.00 to 8.00; in assay [4] (setting [6]) it was 8.00 to 9.00.

Take `CC(C)[C@H](NC(=O)[C@@H]1CCCN1C(=O)[C@H](CC(=O)O)NC(=O)CCOCCOCCOCCNC(=O)CCC(=O)Nc1nnc(S(N)(=O)=O)s1)C(=O)N=[S@](C)(=O)Cc1cc2nc(c1)OCCCOc1cc(F)ccc1-c1cc(ncc1F)N2` (relative stereo) [Compound 10, sodium 1-{(2S)-2-(carboxylatomethyl)-4,17,20-trioxo-20-[(5-sulfamoyl-1,3,4-thiadiazol-2-yl)amino]-7,10,13-trioxa-3,16-diazaicosanan-1-oyl}-L-prolyl-N—[(R*)—{[15,19-difluoro-3,4-dihydro-2H,11H-10,6-(azeno)-12,16-(metheno)-1,5,11,13-benzodioxadiazacyclooctadecin-8-yl]methyl}(methyl)oxo-lambda6-sulfanylidene]-L-valinamide]: the pIC50 in assay [1] (setting [5]) was 6.00 to 7.00; in assay [1] (setting [6]), 8.00 to 9.00; in assay [2] (setting [5]) it was less than 6.00; in assay [2] (setting [6]) it was 8.00 to 9.00; in assay [3] (setting [5]), less than 6.00; in assay [3] (setting [6]), 8.00 to 9.00. The results for the pIC50 in assay [4] (setting [5]) and in assay [4] (setting [6]) were 6.00 to 7.00 and 8.00 to 9.00, respectively.

For the compound `CCc1c2c(nc3ccccc13)-c1cc3c(c(=O)n1C2)COC(=O)[C@@]3(CC)OC(=O)[C@@H](NC(=O)[C@@H]1CCCN1C(=O)[C@H](CC(=O)O)NC(=O)CCOCCOCCOCCNC(=O)[C@H](CCCCNC(=O)CCOCCOCCOCCNC(=O)CCC(=O)Nc1nnc(S(N)(=O)=O)s1)NC(=O)CCOCCOCCOCCNC(=O)CCC(=O)Nc1nnc(S(N)(=O)=O)s1)C(C)C` [Compound 8, sodium (4S)-4,11-diethyl-3,14-dioxo-3,4,12,14-tetrahydro-1H-pyrano[3′,4′:6,7]indolizino[1,2-b]quinolin-4-yl 1-[(2S)-15-[(N2,N6-bis{14,17-dioxo-17-[(5-sulfamoyl-1,3,4-thiadiazol-2-yl)amino]-4,7,10-trioxa-13-azaheptadecanan-1-oyl}-L-lysyl)amino]-2-(carboxylatomethyl)-4-oxo-7,10,13-trioxa-3-azapentadecanan-1-oyl]-L-prolyl-L-valinate] ({Deacetylacetazolamide-Suc-PEG3}-K([PEG3-Suc-Deacetylacetazolamide])[PEG3]DPV-{Camptothecin(7-Et)}), the pIC50 in assay [1] (setting [5]) is less than 6.00; in assay [1] (setting [6]), 7.00 to 8.00; in assay [2] (setting [5]) it was less than 6.00; in assay [2] (setting [6]), 7.00 to 8.00; in assay [3] (setting [5]), less than 6.00; in assay [3] (setting [6]), 7.00 to 8.00. Further, the values for the pIC50 in assay [4] (setting [5]) and in assay [4] (setting [6]) were less than 6.00 and 7.00 to 8.00, respectively.

Regarding `CCCNC(=O)Nc1cccc(S(=O)(=O)Nc2cccc([C@@H](CC(=O)O)NC(=O)Nc3ccc(NC(=O)NCCOCCOCCOCCC(=O)N[C@@H](CCC(=O)NCCOCCOCCOCCC(=O)N[C@@H](CC(=O)O)C(=O)N4CCC[C@H]4C(=O)N[C@H](C(=O)O[C@]4(CC)C(=O)OCc5c4cc4n(c5=O)Cc5c-4nc4ccccc4c5CC)C(C)C)C(=O)NCCOCCOCCOCCC(=O)N[C@@H](CC(=O)O)C(=O)N4CCC[C@H]4C(=O)N[C@H](C(=O)O[C@]4(CC)C(=O)OCc5c4cc4n(c5=O)Cc5c-4nc4ccccc4c5CC)C(C)C)cc3)c2)c1` [Compound 3], the negative-log IC50 (pIC50) is 7.00 to 8.00 in assay [1] (setting [5]); 8.00 to 9.00 in assay [1] (setting [6]); 6.00 to 7.00 in assay [2] (setting [5]); 8.00 to 9.00 in assay [2] (setting [6]); 6.00 to 7.00 in assay [3] (setting [5]); 8.00 to 9.00 in assay [3] (setting [6]). Besides, the pIC50 in assay [4] (setting [5]) was 6.00 to 7.00; in assay [4] (setting [6]) it was 8.00 to 9.00.

For `CCCNC(=O)Nc1cccc(S(=O)(=O)Nc2cccc([C@@H](CC(=O)O)NC(=O)Nc3ccc(NC(=O)NCCOCCOCCOCCC(=O)N[C@@H](CC(=O)O)C(=O)N4CCC[C@H]4C(=O)N[C@H](C(=O)OC(C)(C)CCNC(=O)[C@H](Cc4ccccc4)NC(=O)[C@H](C)[C@@H](OC)[C@@H]4CCCN4C(=O)C[C@@H](OC)[C@H]([C@@H](C)CC)N(C)C(=O)[C@@H](NC(=O)[C@H](C(C)C)N(C)C)C(C)C)C(C)C)cc3)c2)c1` [Compound 32], the pIC50 in assay [1] (setting [5]) is 7.00 to 8.00; in assay [1] (setting [6]), 8.00 to 9.00; in assay [2] (setting [5]), 7.00 to 8.00; in assay [2] (setting [6]), 8.00 to 9.00; in assay [3] (setting [5]), 6.00 to 7.00; in assay [3] (setting [6]) it was 7.00 to 8.00. Moreover, the pIC50 in assay [4] (setting [5]) was 7.00 to 8.00; in assay [4] (setting [6]) it was 8.00 to 9.00.

As to `CCc1c2c(nc3ccccc13)-c1cc3c(c(=O)n1C2)COC(=O)[C@@]3(CC)OC(=O)[C@@H](NC(=O)[C@@H]1CCCN1C(=O)[C@H](CC(=O)O)NC(=O)CCOCCOCCOCCNC(=O)[C@H](CCCCNC(=O)CCOCCOCCOCCNC(=O)NCCCC[C@H](NC(=O)N[C@@H](CCC(=O)O)C(=O)O)C(=O)O)NC(=O)CCOCCOCCOCCNC(=O)NCCCC[C@H](NC(=O)N[C@@H](CCC(=O)O)C(=O)O)C(=O)O)C(C)C` [Compound 7, heptasodium (4S)-4,11-diethyl-3,14-dioxo-3,4,12,14-tetrahydro-1H-pyrano[3′,4′:6,7]indolizino[1,2-b]quinolin-4-yl 1-[(2S)-15-{[N2,N6-bis(3S,7S)(1,3,7-tricarboxylato-5,13,26-trioxo-17,20,23-trioxa-4,6,12,14-tetraazahexacosan-26-yl)-L-lysyl]amino}-2-(carboxylatomethyl)-4-oxo-7,10,13-trioxa-3-azapentadecanan-1-oyl]-L-prolyl-L-valinate] ({EuK-CO-PEG3}-K([PEG3-CO-EuK])[PEG3]DPV-{Camptothecin(7-Et)}), the pIC50 in assay [1] (setting [5]) was 6.00 to 7.00; in assay [1] (setting [6]), 8.00 to 9.00; in assay [2] (setting [5]), less than 6.00; in assay [2] (setting [6]), 7.00 to 8.00; in assay [3] (setting [5]), 6.00 to 7.00; in assay [3] (setting [6]), 8.00 to 9.00. The values for the pIC50 in assay [4] (setting [5]) and in assay [4] (setting [6]) were 6.00 to 7.00 and 8.00 to 9.00, respectively.

Turning to `CC[C@@]1(OC(=O)[C@@H](NC(=O)[C@@H]2CCCN2C(=O)[C@H](CC(=O)O)NC(=O)CCOCCOCCOCCNC(=O)NCCCC[C@H](NC(=O)N[C@@H](CCC(=O)O)C(=O)O)C(=O)O)C(C)C)C(=O)OCc2c1cc1n(c2=O)Cc2c-1nc1cc(F)c(C)c3c1c2[C@@H](N)CC3` [Compound 11, tetrasodium (1S,9S)-1-amino-9-ethyl-5-fluoro-4-methyl-10,13-dioxo-2,3,9,10,13,15-hexahydro-1H,12H-benzo[de]pyrano[3′,4′:6,7]indolizino[1,2-b]quinolin-9-yl 1-[(2S,23S,27S)-23,27,29-tricarboxylato-2-(carboxylatomethyl)-4,17,25-trioxo-7,10,13-trioxa-3,16,18,24,26-pentaazanonacosanan-1-oyl]-L-prolyl-L-valinate], the pIC50 in assay [1] (setting [5]) was 6.00 to 7.00; in assay [1] (setting [6]), 8.00 to 9.00; in assay [2] (setting [5]) it was less than 6.00; in assay [2] (setting [6]), 7.00 to 8.00; in assay [3] (setting [5]), 6.00 to 7.00; in assay [3] (setting [6]), 8.00 to 9.00. The pIC50 in assay [4] (setting [5]) is 6.00 to 7.00; in assay [4] (setting [6]) it was 8.00 to 9.00.
